Test results published in PMC7587962, “Evaluation of Cytotoxicity and α-Glucosidase Inhibitory Activity of Amide and Polyamino-Derivatives of Lupane Triterpenoids” (Molecules, 2020).
Where two headings read alike, the source gives them in different places.

Key:
HOP-92 = test: NCI-60 SRB screen: non-small cell lung cancer HOP-92; format: cell-based, human; settings: HOP-92
SK-OV-3 = test: NCI-60 SRB screen: ovarian cancer SK-OV-3; format: cell-based, human; settings: SK-OV-3
SF-268 = test: NCI-60 SRB screen: CNS cancer SF-268; format: cell-based, human; settings: SF-268
NCI-H322M = test: NCI-60 SRB screen: non-small cell lung cancer NCI-H322M; format: cell-based, human
NSCL cancer subpanel = test: NCI-60 screen, subpanel NSCL cancer
SNB-75 = test: NCI-60 SRB screen: CNS cancer SNB-75; format: cell-based, human; settings: SNB-75
OVCAR-4 = test: NCI-60 SRB screen: ovarian cancer OVCAR-4; format: cell-based; settings: Homo sapiens; OVCAR-4; five concentrations, 48 h, SRB; read-out: GI50
PC-3 = test: NCI-60 SRB screen: prostate cancer PC-3; format: cell-based, human; settings: PC-3
HL-60(TB) = test: NCI-60 SRB screen: leukemia HL-60(TB); format: cell-based; settings: Homo sapiens, 48 h, HL-60(TB)
Ovarian Cancer subpanel = test: NCI-60 screen, subpanel Ovarian Cancer
HOP-62 = test: NCI-60 SRB screen: non-small cell lung cancer HOP-62; format: cell-based, human; settings: HOP-62
RXF 393 = test: NCI-60 SRB screen: renal cancer RXF 393; format: cell-based, human; settings: RXF 393
NCI-H460 = test: NCI-60 SRB screen: non-small cell lung cancer NCI-H460; format: cell-based; settings: Homo sapiens, 48 h, NCI-H460
A498 = test: NCI-60 SRB screen: renal cancer A498; format: cell-based, human; settings: A498
NCI-H522 = test: NCI-60 SRB screen: non-small cell lung cancer NCI-H522; format: cell-based, human; settings: NCI-H522
SK-MEL-28 = test: NCI-60 SRB screen: melanoma SK-MEL-28; format: cell-based, human; settings: SK-MEL-28
Breast cancer subpanel = test: NCI-60 screen, subpanel Breast cancer
IGROV1 = test: NCI-60 SRB screen: ovarian cancer IGROV1; format: cell-based, human; settings: IGROV1
MDA-MB-468 = test: NCI-60 SRB screen: breast cancer MDA-MB-468; format: cell-based, human
UO-31 = test: NCI-60 SRB screen: renal cancer UO-31; format: cell-based, human; settings: UO-31
[1] = test system: 60 human tumor cell lines; settings: single dose 10 µM
SR = test: NCI-60 SRB screen: leukemia SR; format: cell-based; settings: Homo sapiens, 48 h
Colon Cancer subpanel = test: NCI-60 screen, subpanel Colon Cancer
TK-10 = test: NCI-60 SRB screen: renal cancer TK-10; format: cell-based, human; settings: TK-10
RPMI-8226 = test: NCI-60 SRB screen: leukemia RPMI-8226; format: cell-based; settings: Homo sapiens, 48 h, RPMI-8226
[2] = test system: 60 human tumor cell lines; test: cells
COLO 205 = test: NCI-60 SRB screen: colon cancer COLO 205; format: cell-based, human; settings: COLO 205
Melanoma subpanel = test: NCI-60 screen, subpanel Melanoma
T-47D = test: NCI-60 SRB screen: breast cancer T-47D; format: cell-based, human; settings: T-47D
SK-MEL-2 = test: NCI-60 SRB screen: melanoma SK-MEL-2; format: cell-based, human; settings: SK-MEL-2
SF-539 = test: NCI-60 SRB screen: CNS cancer SF-539; format: cell-based, human; settings: SF-539
CNS cancer subpanel = test: NCI-60 screen, subpanel CNS cancer
OVCAR-5 = test: NCI-60 SRB screen: ovarian cancer OVCAR-5; format: cell-based, human; settings: OVCAR-5
HCC-2998 = test: NCI-60 SRB screen: colon cancer HCC-2998; format: cell-based, human; settings: HCC-2998
[3] = Homo sapiens, five concentrations, 48 h, SRB, read-out: GI50
[4] = single dose 10 µM, read-out: Percentage Cell Growth
[5] = five concentrations, SRB, read-out: GI50

In the case of `CC(=O)OCC12CCC(C(C)C(N)=O)C1C1CCC3C4(C)CCC(OC(C)=O)C(C)(C)C4CCC3(C)C1(C)CC2` [Compound 4, 3β,28-Diacetyloxy-(20R)-29-amino-29-oxolupane], the “Percentage Cell Growth” value (HOP-92; single dose 10 µM) was −83.15%, the GI50 (HOP-92; [3]) was 5.21 µM and the GI50 (SK-OV-3; [3]) was 13.4 µM. The “Percentage Cell Growth” value (SK-OV-3; single dose 10 µM) was −11.89%, the GI50 (SF-268; [3]) was 6.95 µM and the “Percentage Cell Growth” value (SF-268; single dose 10 µM) was −61.04%. For the same compound, the GI50 (NCI-H322M; [3]) was 13 µM, the “Percentage Cell Growth” value (NCI-H322M; single dose 10 µM) was −78.19% and the “MID b, average sensitivity of all cell line of particular subpanel” value (“MID b, average sensitivity” for short) (NSCL cancer subpanel) was 7.50 µM. For the same compound, the “Selectivity, ratio MID a: MID b” value (NSCL cancer subpanel) was 1.05, the GI50 (SNB-75; [3]) was 5.59 µM and the “Percentage Cell Growth” value (SNB-75; single dose 10 µM) was −47.83%. For the same compound, the GI50 (OVCAR-4) was 4.72 µM, the GI50 (PC-3; [3]) was 2.67 µM and the “Percentage Cell Growth” value (PC-3; single dose 10 µM) was −47.42%. For the same compound, the activity at 10 µM (HL-60(TB); [4]) was -23.1%, the GI50 (HL-60(TB); [5]) was 2.76 µM and the “MID b, average sensitivity” value (Ovarian Cancer subpanel) was 15.97 µM. The “Selectivity, ratio MID a: MID b” value (Ovarian Cancer subpanel) was 0.49, the “Percentage Cell Growth” value (HOP-62; single dose 10 µM) was −72.98% and the GI50 (HOP-62; [3]) was 1.1 µM. For the same compound, the GI50 (RXF 393; [3]) was 4.28 µM, the “Percentage Cell Growth” value (RXF 393; single dose 10 µM) was −64.94% and the activity at 10 µM (NCI-H460; [4]) was -61.8%. The GI50 (NCI-H460; [5]) was 13.4 µM, the “Percentage Cell Growth” value (A498; single dose 10 µM) was −81.70% and the GI50 (A498; [3]) was 12.8 µM. For the same compound, the GI50 (NCI-H522; [3]) was 4.94 µM, the “Percentage Cell Growth” value (NCI-H522; single dose 10 µM) was −61.13% and the GI50 (SK-MEL-28; [3]) was 12 µM. For the same compound, the “Percentage Cell Growth” value (SK-MEL-28; single dose 10 µM) was −73.19%, the “MID b, average sensitivity” value (Breast cancer subpanel) was 7.09 µM and the “Selectivity, ratio MID a: MID b” value (Breast cancer subpanel) was 1.11. For the same compound, the GI50 (IGROV1; Homo sapiens, IGROV-1, five concentrations, 48 h, SRB, read-out: GI50) was 13.2 µM, the “Percentage Cell Growth” value (IGROV1; single dose 10 µM) was −71.25% and the GI50 (MDA-MB-468; [3]) was 3.96 µM. The “Percentage Cell Growth” value (MDA-MB-468; single dose 10 µM) was −40.40%, the GI50 (UO-31; [3]) was 7.57 µM and the “Percentage Cell Growth” value (UO-31; single dose 10 µM) was −97.54%. The “cancer cell lethality, range of percentage growth” value ([1]; cell lines with negative growth) was −8.82% to −97.54%, the “cases of cancer cell lethality” value ([1]; number of cell lines) was 57 and the activity at 10 µM (SR; [4]) was 10.8%. The GI50 (SR; [5]) was 3.32 µM, the “MID b, average sensitivity” value (Colon Cancer subpanel) was 5.37 µM and the “Selectivity, ratio MID a: MID b” value (Colon Cancer subpanel) was 1.47. The GI50 (TK-10; [3]) was 14.7 µM, the “Percentage Cell Growth” value (TK-10; single dose 10 µM) was −35.40% and the activity at 10 µM (RPMI-8226; [4]) was -18.3%. It also gave a GI50 (RPMI-8226; [5]) of 2.63 µM, a GI50 ([2]; read-out: GI50 ranges against all panels of NCI60) of 1.1 to 54.4 µM and a GI50 ([2]; read-out: MID a, average sensitivity of all cell line (GI50-MID)) of 7.87 µM. For the same compound, the “Percentage Cell Growth” value (COLO 205; single dose 10 µM) was −52.98%, the GI50 (COLO 205; [3]) was 4.31 µM and the “MID b, average sensitivity” value (Melanoma subpanel) was 7.80 µM. The “Selectivity, ratio MID a: MID b” value (Melanoma subpanel) was 1.01, the GI50 (T-47D; Homo sapiens, T47D, five concentrations, 48 h, SRB, read-out: GI50) was 2.91 µM and the “Percentage Cell Growth” value (T-47D; single dose 10 µM) was −8.82%. The GI50 (SK-MEL-2; [3]) was 10.8 µM, the “Percentage Cell Growth” value (SK-MEL-2; single dose 10 µM) was −77.63% and the GI50 (SF-539; [3]) was 5.52 µM. For the same compound, the “Percentage Cell Growth” value (SF-539; single dose 10 µM) was −83.91%, the “MID b, average sensitivity” value (CNS cancer subpanel) was 7.27 µM and the “Selectivity, ratio MID a: MID b” value (CNS cancer subpanel) was 1.08. For the same compound, the GI50 (OVCAR-5; [3]) was 14.4 µM, the “Percentage Cell Growth” value (OVCAR-5; single dose 10 µM) was −77.37% and the “Percentage Cell Growth” value (HCC-2998; single dose 10 µM) was −68.10%. For the same compound, the GI50 (HCC-2998; [3]) was 10.4 µM.
